12 molecules from PubChem BioAssay (NCI) can be followed below.

Among the test systems are K-562 leukemia; SK-MEL-2 melanoma; SF-268 CNS; SN12C renal; HOP-62 NSCLC; SK-MEL-5 melanoma; UO-31 renal; XF 498 CNS; MALME-3M melanoma; UACC-257 melanoma; OVCAR-4 ovarian.
Experiment in all cases: NCI-60 cell line screen, 48 h

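Compound exposure: 48 hours, 5 concentrations, 96-well plates. Abbreviation: GI50, concentration required for 50% inhibition of growth. TGI: total growth inhibition.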 Where a SMILES comes first, the peptide text is derived from it. The star is where a group is joined. Cbz = O=C(OCc1ccccc1)*; Bn = c1ccc(C*)cc1

In the case of `CC(=O)OCC1OC(NC(=O)N(CCCl)N=O)C(OC(C)=O)C(OC(C)=O)C1OC(C)=O` (configuration not stated), the TGI is more than 100 µM with K-562 leukemia; more than 100 µM in the assay on SK-MEL-2 melanoma; more than 100 µM in the assay with SF-268 CNS; more than 100 µM with SN12C renal; more than 100 µM with HOP-62 NSCLC; more than 31.6 µM in the assay with SK-MEL-5 melanoma. For the same molecule, the TGI in the assay with UO-31 renal, in the assay with XF 498 CNS, with MALME-3M melanoma, in the assay with UACC-257 melanoma and with OVCAR-4 ovarian was more than 100 µM each time.

As for `NC(=O)c1ccc([N+](=O)[O-])cc1`, the TGI with K-562 leukemia, in the assay with SK-MEL-2 melanoma, with SF-268 CNS, in the assay with SN12C renal, with HOP-62 NSCLC and in the assay on SK-MEL-5 melanoma was more than 100 µM throughout. Also, the TGI with UO-31 renal, in the assay with XF 498 CNS, with MALME-3M melanoma and in the assay with UACC-257 melanoma was more than 100 µM in each case.

On to `C1CSCCSCSCCS1`, for which the TGI in the assay with SK-MEL-2 melanoma, with SF-268 CNS, with SN12C renal, in the assay on HOP-62 NSCLC, with SK-MEL-5 melanoma and in the assay with UO-31 renal was more than 100 µM throughout. Also, the TGI with UACC-257 melanoma and in the assay with OVCAR-4 ovarian was more than 100 µM each time.

For `O=C1c2cccc(O)c2C(=O)c2c(O)cccc21`, the TGI with K-562 leukemia, with SK-MEL-2 melanoma, with SF-268 CNS, in the assay on SN12C renal, in the assay on HOP-62 NSCLC and in the assay with UO-31 renal was more than 100 µM each time. Also, the TGI with XF 498 CNS, in the assay with UACC-257 melanoma and in the assay on OVCAR-4 ovarian was more than 100 µM in each case.

Consider `COc1ccc(-c2oc3cc(OC(C)=O)cc(OC(C)=O)c3c(=O)c2OC)cc1`, for which the TGI in the assay with K-562 leukemia was determined as 29.4 µM; in the assay with SF-268 CNS, 46.9 µM; in the assay with HOP-62 NSCLC, 42.4 µM; in the assay on SK-MEL-5 melanoma it was 25 µM; with UO-31 renal, 51.7 µM; in the assay with MALME-3M melanoma, 65.6 µM. Further, in the assay with UACC-257 melanoma, the TGI was determined as 34.7 µM.

In the case of `C=CCOCCC(CC=C)C(=O)CC(=O)OC` (configuration not stated), the TGI with K-562 leukemia, in the assay on SK-MEL-2 melanoma, in the assay with SF-268 CNS, in the assay with SN12C renal, with HOP-62 NSCLC and in the assay with SK-MEL-5 melanoma was more than 100 µM in each case. Also, the TGI in the assay with UO-31 renal, in the assay on XF 498 CNS, in the assay with MALME-3M melanoma, with UACC-257 melanoma and with OVCAR-4 ovarian was more than 100 µM each time.

For the molecule `NC(CCP(=O)(O)O)C(=O)O` (configuration not stated), the TGI in the assay with K-562 leukemia, in the assay with SK-MEL-2 melanoma, in the assay on SF-268 CNS, in the assay with SN12C renal, with HOP-62 NSCLC and in the assay with SK-MEL-5 melanoma was more than 100 µM throughout. In addition, the TGI in the assay with UO-31 renal, with MALME-3M melanoma, with UACC-257 melanoma and in the assay on OVCAR-4 ovarian was more than 100 µM each time.

`CC1C[C@]2(C[C@@H](C)C(=O)O2)OC2CC3(C)C4CCC5C(C)(C)OC(=O)CC[C@@]56C[C@@]46CC[C@]3(C)C12` (some centres not stated): the TGI in the assay with K-562 leukemia, in the assay on SK-MEL-2 melanoma, in the assay with SF-268 CNS, in the assay on SN12C renal, in the assay with SK-MEL-5 melanoma and with XF 498 CNS was more than 100 µM in each case. Also, the TGI in the assay with MALME-3M melanoma, in the assay on UACC-257 melanoma and with OVCAR-4 ovarian was more than 100 µM each time.

For `O=C(Nc1ccc(Cl)cc1)c1cc([N+](=O)[O-])ccc1O`, the TGI with K-562 leukemia is 13.1 µM; with SK-MEL-2 melanoma it was 11.3 µM; in the assay with SF-268 CNS it was 47.7 µM; in the assay on SN12C renal, more than 50.9 µM; in the assay with HOP-62 NSCLC it was 9.26 µM; with SK-MEL-5 melanoma, 8.25 µM. In addition, the TGI in the assay on UO-31 renal was 7.65 µM; with XF 498 CNS it was 8.72 µM; in the assay with MALME-3M melanoma, 8.57 µM; with UACC-257 melanoma, 16.7 µM; with OVCAR-4 ovarian, more than 100 µM.

Take `COC(=O)C(Cc1ccc(O)cc1)NC(=O)C(COCc1ccccc1)NC(=O)OCc1ccccc1` (configuration not stated) (Cbz-Ser(Bn)-Tyr-OMe; configuration not given here): the TGI with K-562 leukemia is more than 100 µM; in the assay on SK-MEL-2 melanoma, 40.8 µM; with SF-268 CNS, 31.9 µM; with SN12C renal it was 32.7 µM; with HOP-62 NSCLC it was 33.6 µM; in the assay with SK-MEL-5 melanoma it was 31.4 µM. The TGI in the assay on UO-31 renal was determined as 36.5 µM; in the assay with MALME-3M melanoma it was 39.6 µM; with UACC-257 melanoma, 39.5 µM; in the assay on OVCAR-4 ovarian it was 34 µM.

As for `c1ccc(-c2n(Cc3ccc4ccccc4c3)c3ccccc3[n+]2Cc2ccc3ccccc3c2)cc1`, the GI50 in the assay with SN12C renal is 0.308 µM; in the assay with SK-MEL-5 melanoma, 0.175 µM; with UO-31 renal, 1.36 µM; in the assay on MALME-3M melanoma, 0.242 µM; in the assay on OVCAR-4 ovarian, 0.245 µM. Moreover, the TGI in the assay with SN12C renal is 1.1 µM; in the assay with SK-MEL-5 melanoma it was 0.326 µM; in the assay on UO-31 renal it was 2.75 µM; in the assay with MALME-3M melanoma, 0.768 µM; in the assay with OVCAR-4 ovarian it was 0.818 µM.

As to `N=C(N)c1ccc(-c2ccc(-c3ccc4ccccc4c3)s2)s1`, the GI50 was 2.52 µM in the assay with SK-MEL-2 melanoma; 2.25 µM in the assay with SF-268 CNS; 1.87 µM in the assay with SN12C renal; 2.08 µM with HOP-62 NSCLC; 14.7 µM with SK-MEL-5 melanoma; 1.97 µM with UO-31 renal. Besides, the GI50 was 3.1 µM in the assay on MALME-3M melanoma and 16.1 µM in the assay on UACC-257 melanoma. The TGI was determined as 5.7 µM with SK-MEL-2 melanoma; 5.5 µM in the assay on SF-268 CNS; 3.74 µM with SN12C renal; 5.24 µM in the assay with HOP-62 NSCLC; 28 µM with SK-MEL-5 melanoma; 4.49 µM with UO-31 renal. The values for the TGI with MALME-3M melanoma and with UACC-257 melanoma were 9.36 µM and 31.2 µM, respectively.
